Laboratory results from ChEMBL document CHEMBL5523754, “Discovery of Biphenyl Derivatives to Target Hsp70-Bim Protein-Protein Interaction in Chronic Myeloid Leukemia by Scaffold Hopping Strategy” (J Med Chem, 2024).
In brackets after ≈: the same amount, converted by molar mass. Activity calls are given as the source filed them. The calls are words filed in the database; no cut-off is given here.

Key:
[1] = Inhibition of N-terminal 6xHis tagged human Hsp70 expressed in Escherichia coli BL21 (DE3)/FAM-labeled BimBH3 peptide (unknown origin) protein protein interaction incubated for 10 mins by fluorescence polarization assay
Homo sapiens [2] = species on record: Homo sapiens; experiment: Effect on human N-terminal 6xHis tagged HSP70 basal ATPase activity expressed in Escherichia coli BL21 (DE3) at 0 to 50 uM preincubated for 30 mins followed by ATP addition and measured after 10 mins by luciferin based luminescence analysis; conditions: dose 0-50 µM, time 40.0 min
Homo sapiens [3] = species on record: Homo sapiens; experiment: Inhibition of BimBH3 peptide stimulated human N-terminal 6xHis tagged Hsp70 ATPase activity expressed in Escherichia coli BL21 (DE3) at 0 to 50 uM preincubated for 30 mins followed by ATP addition and measured after 10 mins by luciferin based luminescence analysis; conditions: dose 0-50 µM, time 40.0 min
BV-173 = experiment: Induction of apoptosis in human BV-173 cells incubated for 48 hrs by Annexin V-FITC staining based flow cytometry analysis; assay type: functional, cell-based; conditions: BV-173, 48 h
[4] = Aqueous solubility of compound at pH 7 at 10 mg incubated for 24 hrs under shaking condition by HPLC method; assay type: physicochemical; conditions: aqueous medium
K562 [5] = experiment: Inhibition of HSP70/Bim protein-protein interaction in human K562 cells assessed as reduction in Raf-1 protein expression incubated for 12 hrs by Western blot analysis; assay type: cell-based
HEK293 = experiment: Induction of apoptosis in HEK293 cells assessed as apoptotic rate at 15 uM incubated for 48 hrs by Annexin V-FITC staining based flow cytometry analysis relative to control; assay type: toxicity, cell-based; conditions: human, hek293, 48 h
K562 [6] = experiment: Inhibition of HSP70/Bim protein-protein interaction in human K562 cells assessed as reduction in AKT protein expression incubated for 12 hrs by Western blot analysis; assay type: cell-based
K562 [7] = experiment: Inhibition of HSP70/Bag3 protein-protein interaction in human K562 cells at 3 uM incubated for 12 hrs by coimmunoprecipitation analysis; assay type: cell-based
BaF3 = experiment: Induction of apoptosis in mouse BaF3 cells assessed as apoptotic rate at 15 uM incubated for 48 hrs by Annexin V-FITC staining based flow cytometry analysis relative to control; assay type: toxicity, cell-based; conditions: baf3, 48 h
K562 [8] = experiment: Inhibition of HSP70/Bim protein-protein interaction in human K562 cells assessed as reduction in eIF4E protein expression incubated for 12 hrs by Western blot analysis; assay type: cell-based
K562 [9] = experiment: Induction of apoptosis in human K562 cells incubated for 48 hrs by Annexin V-FITC staining based flow cytometry analysis; assay type: functional, cell-based; conditions: K562, 48 h
[10] = Binding affinity to N-terminal 6xHis tagged human HSP70 expressed in Escherichia coli BL21 (DE3) assessed as dissociation constant by ITC analysis
[11] = Induction of apoptosis in human Imatinib-resistant K562-R3 cells incubated for 48 hrs by Annexin V-FITC staining based flow cytometry analysis; assay type: functional; conditions: Imatinib-resistant K562-R3 cell
K562 [12] = experiment: Inhibition of HSP70/Bag3 protein-protein interaction in human K562 cells at 5 uM incubated for 12 hrs by coimmunoprecipitation analysis; assay type: cell-based
[13] = Induction of apoptosis in HEK293 cells incubated for 48 hrs by Annexin V-FITC staining based flow cytometry analysis; assay type: toxicity, cell-based; conditions: human
K562 [14] = experiment: Inhibition of HSP70/Bim protein-protein interaction in human K562 cells at 5 uM incubated for 12 hrs by coimmunoprecipitation analysis; assay type: cell-based
[15] = Induction of apoptosis in mouse BaF3 cells incubated for 48 hrs by Annexin V-FITC staining based flow cytometry analysis; assay type: toxicity, cell-based
Homo sapiens [16] = species on record: Homo sapiens; experiment: Inhibition of human N-terminal 6xHis tagged HSP70 basal ATPase activity expressed in Escherichia coli BL21 (DE3) at 0 to 50 uM preincubated for 30 mins followed by ATP addition and measured after 10 mins by luciferin based luminescence analysis; conditions: dose 0-50 µM, time 40.0 min
K562 [17] = experiment: Inhibition of HSP70/Bag3 protein-protein interaction in human K562 cells at 0.5 to 3 uM incubated for 12 hrs by coimmunoprecipitation analysis; assay type: cell-based; conditions: dose 0.5-3 µM
K562 [18] = experiment: Inhibition of HSP70/Bim protein-protein interaction in human K562 cells incubated for 12 hrs by coimmunoprecipitation analysis; assay type: cell-based; conditions: dose 0.5-3 µM
K562 [19] = experiment: Induction of apoptosis in Hsp70 shRNA-transfected human K562 cells assessed as increase in PARP cleavage at 2 uM incubated for 24 hrs by Western blot analysis; assay type: functional, cell-based
K562 [20] = experiment: Inhibition of HSP70/Bim protein-protein interaction in human K562 cells assessed as reduction in AKT protein expression at 2 uM incubated for 12 hrs by Western blot analysis; assay type: cell-based
[21] = (§1) Inhibition of BimBH3 peptide stimulated human N-terminal 6xHis tagged Hsp70 ATPase activity expressed in Escherichia coli BL21 (DE3) preincubated for 30 mins followed by ATP addition and measured after 10 mins by luciferin based luminescence analysis
Homo sapiens [22] = species on record: Homo sapiens; experiment: as §1; conditions: time 40.0 min
K562 [23] = experiment: Inhibition of HSP70/Bim protein-protein interaction in human K562 cells assessed as reduction in Raf-1 protein expression at 2 uM incubated for 12 hrs by Western blot analysis; assay type: cell-based
K562 [24] = experiment: Induction of apoptosis in Bim shRNA-transfected human K562 cells assessed as increase in PARP cleavage at 2 uM incubated for 24 hrs by Western blot analysis; assay type: functional, cell-based
K562 [25] = experiment: Inhibition of HSP70/Bim protein-protein interaction in human K562 cells assessed as reduction in eIF4E protein expression at 2 uM incubated for 12 hrs by Western blot analysis; assay type: cell-based

Structure (SMILES)	IC50 [1] [nM]	Activity (Homo sapiens [2])	inhibition (Homo sapiens [3])	further results
CN(C)CCNc1cc(-c2ccc(OC3CCCCC3)cc2)cc(CC(=O)O)c1C#N	3600	inactive	Active	
CN(C)CCNc1cc(-c2ccc(OC3CCCCC3)cc2)cc(F)c1C#N	8200	inactive	Active	
CN(C)CCNc1cc(-c2ccc(Oc3cc(C(C)(C)C)cc(C(C)(C)C)c3)cc2)cc(O)c1C#N	880	inactive	Active	
Cc1cc(-c2ccc(OC3CCCCC3)cc2)cc(NCCN(C)C)c1C#N	> 10000	inactive	Active	
Cc1cc(Oc2ccc(-c3cc(O)c(C#N)c(NCCN4CCCC4)c3)cc2)cc(C)c1Cl	90	inactive	Active	
CN(C)CCn1ccc2ccc(NC(=O)NC3CCCCC3)cc21	> 10000	inactive	Active	
O=C(Nc1ccc2ncn(CCN3CCOCC3)c2c1)NC1CCCCC1	> 10000	inactive	Active	
CCN(CC)CCNC1=C(C#N)C(=O)c2cccc3c(SC4CCCCC4)ccc1c23	800	inactive	Active	EC50 (BV-173): 660 nM; solubility thermodynamic at 24 h [4]: 7.19 µg/mL (≈ 16.6 µM); inhibition (K562 [5]): Active; Activity (HEK293): < 10%; inhibition (K562 [6]): Active; inhibition (K562 [7]): inactive; Activity (BaF3): < 10%; inhibition (K562 [8]): Active; EC50 (K562 [9]): 1200 nM; Kd [10]: 688 nM; EC50 [11]: 370 nM
CCN(CC)CCNc1cc(-c2ccc(Oc3cc(C)c(Cl)c(C)c3)cc2)cc(O)c1C#N	280	inactive	Active	
CN(C)CCNc1cc(-c2ccc(OC3CCCCC3)cc2)cc(O)c1C#N	930	inactive	Active	
CN(C)CCn1cnc2ccc(NC(=O)NC3CCCCC3)cc21	> 10000	inactive	Active	
N#Cc1ccc(COC[C@H]2O[C@@H](n3c(NCc4ccc(Cl)c(Cl)c4)nc4c(N)ncnc43)[C@H](O)[C@@H]2O)cc1			Active	EC50 (BV-173): 5640 nM; inhibition (K562 [12]): inactive; EC50 at 48 h [13]: 6460 nM; inhibition (K562 [14]): inactive; EC50 at 48 h [15]: 7730 nM; EC50 (K562 [9]): 7050 nM; inhibition (Homo sapiens [16]): Active; EC50 [11]: 8680 nM
Cc1cc(Oc2ccc(-c3cc(O)c(C#N)c(NCCN(C)C)c3)cc2)cc(C)c1Cl	330	inactive	Active	
Cc1cccc(Oc2ccc(-c3cc(O)c(C#N)c(NCCN(C)C)c3)cc2)c1	820	inactive	Active	
CN(C)CCNc1cc(-c2ccc(Oc3ccccc3)cc2)cc(O)c1C#N	2130	inactive	Active	
O=C(Nc1ccc2ccn(CCN3CCOCC3)c2c1)NC1CCCCC1	> 10000	inactive	Active	
Cc1cc(C)cc(Oc2ccc(-c3cc(O)c(C#N)c(NCCN(C)C)c3)cc2)c1	620	inactive	Active	
CCN(CC)CCn1cnc2ccc(NC(=O)NC3CCCCC3)cc21	> 10000	inactive	Active	
Cc1cc(Oc2ccc(-c3cc(O)c(C#N)c(NCCN4CCCCC4)c3)cc2)cc(C)c1Cl	70	inactive		EC50 (BV-173): 430 nM; solubility thermodynamic at 24 h [4]: 29.4 µg/mL (≈ 61.8 µM); inhibition (K562 [17]): inactive; inhibition (K562 [18]): Dose-Dependent Effect; Activity (K562 [19]): inactive; Activity (HEK293): < 10%; Activity (BaF3): < 10%; inhibition (K562 [20]): Active; IC50 [21]: 4890 nM; inhibition (Homo sapiens [22]): Dose-Dependent Effect; inhibition (K562 [23]): Active; EC50 (K562 [9]): 880 nM; Kd [10]: 123 nM; Activity (K562 [24]): inactive; inhibition (K562 [25]): Active; EC50 [11]: 190 nM
Cc1cc(Oc2ccc(-c3cc(O)c(C#N)c(NCCN(C)C)c3)cc2)cc(C)c1N	410	inactive	Active	
O=C(Nc1ccc2ccn(CCN3CCOCC3)c2c1)C1CCCCC1	> 10000	inactive	Active	
CN(C)CCn1c(=O)oc2ccc(NC(=O)NC3CCCCC3)cc21	> 10000	inactive	Active	
CN(C)CCNc1cc(-c2ccc(OC34CC5CC(CC(C5)C3)C4)cc2)cc(O)c1C#N	8800	inactive	Active	
CN(C)CCn1cnc2ccc(NC(=O)C3CCCCC3)cc21	> 10000	inactive	Active	
